According to US6753337B2, “Alkynyl containing hydroxamic acid compounds as matrix metalloproteinase/tace inhibitors” (Wyeth Holdings Corporation, priority 1999, dated 2004):
Where a name gives a salt, the structure may show the parent alone.

How the values were obtained:
[1] = target: TNF-α converting enzyme (TACE) (Homo sapiens, UniProt P78536); assay: Test procedure for measuring TACE inhibition (fluorescent peptidyl substrate); assay type: biochemical
Procedure: Using 96-well black microtiter plates, each well receives a solution composed of 10 μL TACE (final concentration 1 μg/mL), 70 μL Tris buffer, pH 7.4 containing 10% glycerol (final concentration 10 mM), and 10 μL of test compound solution in DMSO (final concentration 1 μM, DMSO concentration <1%) and incubated for 10 minutes at room temperature. The reaction is initiated by addition of a fluorescent peptidyl substrate (final concentration 100 μM to each well and then shaking on a shaker for 5 sec.
The reaction is read (excitation 340 nm, emission 420 nm) for 10 min. and the increase in fluorescence over time is plotted as a linear line. The slope of the line is calculated and represents the reaction rate.
The mean (x±sem) of the control rate is calculated and compared for statistical significance (p<0.05) with drug-treated rates using Dunnett's multiple comparison test.

THP-1 cells = assay: Human monocytic THP-1 cell differentiation assay for soluble proteins (THP-1 soluble protein assay); assay type: cell-based; settings: LPS-stimulated THP-1 cells, soluble protein not given
From the text: Mitogenic stimulation of THP-1 cells cause differentiation into macrophage like cells with concomitant secretion of tumor necrosis factor (TNF-α) and TNF receptor (TNF-R p75/80 and TNF-R p55160) and Interleukin-8 (IL-8), among other proteins. In addition, non-stimulated THP-1 cells shed both the p75/80 and the p55/60 receptors over time. The release of membrane bound TNF-α and possibly TNF-R p75/80 and TNF-R p55/60, but not IL-8, is mediated by an enzyme called TNF-α converting enzyme or TACE.
THP-1 cells (from ATCC) are a human monocytic cell line which were obtained from the peripheral blood of a person with acute monocytic leukemia. They can be grown in culture and differentiated into macrophage like cells by stimulation with mitogens.
Each vial of cells are cultured for about two weeks prior to being used for an assay and then are used for only 4 to 6 weeks to screen compounds.
Cell exposure to DMSO was limited to 0.1% final concentration. […] Compounds can be evaluated for their effect on basal (non-stimulated) shedding of the receptors by replacing the LPS with […] of THP-1 media.
Plates are placed into an incubator set at 5% CO2 and at 37° C. After 4 hours of incubation, […] of tissue culture supernatant (TCS) is removed for use in an TNF-α ELISA. Following 24 hours of incubation, […] of TCS is removed and used for analysis in TNF-R p75/80, TNF-R p55160 and IL-8 ELISAs.
In addition, at the 24 hours timepoint, and the cells for each treatment group are collected by resuspension in 500 μl/well of THP-1 media and transferred into a FACS tube. […] The samples are run on a Becton Dickinson FaxCaliber FLOW cytometry machine and the amount of dye taken up by each cell is measured in the high red wavelength (FL3). Only cells with compromised membranes (dead or dying) can take up PI. The percent of live cells is calculated by the number of cells not stained with PI, divided by the total number of cells in the sample. The viability values calculated for the drug treated groups were compared to the viability value calculated for the vehicle treated mitogen stimulated group (“vehicle positive control”) to determine the “percent change from control”. This “percent change from control” value is an indicator of drug toxicity.
The quantity of soluble TNF-α, TNF-R p75/80 and TNF-R p55160 and IL-8 in the TCS of the THP-1 cell cultures are obtained with commercially available ELISAs from R&D Systems, by extrapolation from a standard curve generated with kit standards. The number of cells that either take up or exclude PI are measured by the FLOW cytometry machine and visualized by histograms using commercially available Cytologic software for each treatment group including all controls.
Biological variability in the magnitude of the response of THP-1 cell cultures requires that experiments be compared on the basis of percent change from “vehicle positive control” for each drug concentration. Percent change in each soluble protein evaluated from the “vehicle positive control” was calculated for each compound concentration with the following formula: [formula]
For the soluble protein (TNF-α, p75/80, p55/60, IL-8) studies under stimulated conditions, the mean pg/ml of duplicate wells were determined and the results expressed as percent change from “vehicle positive control”. For the soluble protein (p75/80 and p55/60 receptors) studies under non-stimulated conditions, the mean pg/ml of duplicate wells were determined and the results expressed as percent change from “vehicle positive control” utilizing the following formula: [formula]
IC50 values for each compound are calculated by non-linear regression analysis using customized software utilizing the JUMP statistical package.
For the cell viability studies, the viabilities (PI exclusion) of pooled duplicate wells were determined and the results expressed as % change from “vehicle positive control”.

MMP-9 = MMP-9 (Homo sapiens, UniProt P14780); assay: MMP-9 inhibition (thiopeptide or fluorescent peptide substrate); assay type: biochemical; settings: for IC50: read-out: MMP9 IC50
Procedure: (§1) These standard pharmacological test procedures are based on the cleavage of a thiopeptide substrates such as Ac-Pro-Leu-Gly(2-mercapto-4-methyl-pentanoyl)-Leu-Gly-OEt by the matrix metalloproteinases MMP-1, MMP-13 (collagenases) or MMP-9 (gelatinase), which results in the release of a substrate product that reacts colorimetrically with DTNB (5,5′-dithiobis(2-nitro-benzoic acid)). The enzyme activity is measured by the rate of the color increase. The thiopeptide substrate is made up fresh as a 20 mM stock in 100% DMSO and the DTNB is dissolved in 100% DMSO as a 100 mM stock and stored in the dark at room temperature. Both the substrate and DTNB are diluted together to 1 mM with substrate buffer (50 mM HEPES pH 7.5, 5 mM CaCl2) before use. The stock of enzyme is diluted with buffer (50 mM HEPES, pH 7.5, 5 mM CaCl2, 0.02% Brij) to the desired final concentration. The buffer, enzyme, vehicle or inhibitor, and DTNB/substrate are added in this order to a 96 well plate (total reaction volume of 200 μl) and the increase in color is monitored spectrophotometrically for 5 minutes at 405 nm on a plate reader and the increase in color over time is plotted as a linear line.
(§2) Alternatively, a fluorescent peptide substrate is used. In this test procedure, the peptide substrate contains a fluorescent group and a quenching group. Upon cleavage of the substrate by an MMP, the fluorescence that is generated is quantitated on the fluorescence plate reader. The assay is run in HCBC assay buffer (50 mM HEPES, pH 7.0, 5 mM Ca^+2, 0.02% Brij, 0.5% Cysteine), with human recombinant MMP-1, MMP-9, or MMP-13. The substrate is dissolved in methanol and stored frozen in 1 mM aliquots. For the assay, substrate and enzymes are diluted in HCBC buffer to the desired concentrations. Compounds are added to the 96 well plate containing enzyme and the reaction is started by the addition of substrate. The reaction is read (excitation 340 nm, emission 444 nm) for 10 min. and the increase in fluorescence over time is plotted as a linear line.
(§3) For either the thiopeptide or fluorescent peptide test procedures, the slope of the line is calculated and represents the reaction rate. The linearity of the reaction rate is confirmed (r^2>0.85). The mean (x±sem) of the control rate is calculated and compared for statistical significance (p<0.05) with drug-treated rates using Dunnett's multiple comparison test. Dose-response relationships can be generated using multiple doses of drug and IC50 values with 95% CI are estimated using linear regression.

MMP-13 = MMP-13 (Homo sapiens, UniProt P45452); assay: MMP-13 inhibition (thiopeptide or fluorescent peptide substrate); assay type: biochemical; settings: for IC50: read-out: MMP13 IC50
Procedure: The enzyme activity is measured by the rate of the color increase. The thiopeptide substrate is made up fresh as a 20 mM stock in 100% DMSO and the DTNB is dissolved in 100% DMSO as a 100 mM stock and stored in the dark at room temperature. Both the substrate and DTNB are diluted together to 1 mM with substrate buffer (50 mM HEPES pH 7.5, 5 mM CaCl2) before use. The stock of enzyme is diluted with buffer (50 mM HEPES, pH 7.5, 5 mM CaCl2, 0.02% Brij) to the desired final concentration.
as §2, with “substrate.” for “substrate. The reaction is read (excitation 340 nm, emission 444 nm) for 10 min. and the increase in fluorescence over time is plotted as a linear line.”
For either the thiopeptide or fluorescent peptide test procedures, the slope of the line is calculated and represents the reaction rate. […] The mean (x±sem) of the control rate is calculated and compared for statistical significance (p<0.05) with drug-treated rates using Dunnett's multiple comparison test.

MMP-1 = target: T1, MMP-1 (Homo sapiens, UniProt P03956); assay: MMP-1 inhibition (thiopeptide or fluorescent peptide substrate); assay type: biochemical; settings: for IC50: read-out: MMP1 IC50
T1 sequence (P03956 100-469): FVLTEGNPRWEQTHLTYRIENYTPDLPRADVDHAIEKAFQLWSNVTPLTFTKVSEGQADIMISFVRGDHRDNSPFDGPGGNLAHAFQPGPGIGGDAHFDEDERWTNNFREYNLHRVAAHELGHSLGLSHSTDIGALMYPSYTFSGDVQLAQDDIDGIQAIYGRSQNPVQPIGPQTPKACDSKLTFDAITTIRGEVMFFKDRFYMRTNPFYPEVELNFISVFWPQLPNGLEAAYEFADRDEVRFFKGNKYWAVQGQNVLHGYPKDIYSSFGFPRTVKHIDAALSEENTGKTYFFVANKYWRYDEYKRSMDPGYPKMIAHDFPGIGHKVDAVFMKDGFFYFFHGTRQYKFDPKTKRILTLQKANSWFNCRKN
Procedure: as §1, §2, §3

MMP-9, sequence (P14780 94-707): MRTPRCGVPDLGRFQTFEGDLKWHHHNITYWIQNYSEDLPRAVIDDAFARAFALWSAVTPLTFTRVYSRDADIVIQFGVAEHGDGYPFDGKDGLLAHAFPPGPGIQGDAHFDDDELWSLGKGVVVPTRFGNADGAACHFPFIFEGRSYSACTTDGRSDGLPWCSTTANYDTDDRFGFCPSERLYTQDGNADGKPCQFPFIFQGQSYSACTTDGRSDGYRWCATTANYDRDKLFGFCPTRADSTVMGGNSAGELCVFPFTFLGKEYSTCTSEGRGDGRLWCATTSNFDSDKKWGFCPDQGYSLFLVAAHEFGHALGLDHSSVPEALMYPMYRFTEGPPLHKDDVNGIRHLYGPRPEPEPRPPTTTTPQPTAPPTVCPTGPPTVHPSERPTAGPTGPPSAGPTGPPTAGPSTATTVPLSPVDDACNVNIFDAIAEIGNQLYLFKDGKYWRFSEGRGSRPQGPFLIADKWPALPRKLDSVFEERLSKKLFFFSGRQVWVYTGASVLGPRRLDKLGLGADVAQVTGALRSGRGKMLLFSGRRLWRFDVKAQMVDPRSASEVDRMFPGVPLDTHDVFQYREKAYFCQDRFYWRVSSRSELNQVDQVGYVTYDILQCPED
TNF-α converting enzyme (TACE), sequence (P78536 215-824): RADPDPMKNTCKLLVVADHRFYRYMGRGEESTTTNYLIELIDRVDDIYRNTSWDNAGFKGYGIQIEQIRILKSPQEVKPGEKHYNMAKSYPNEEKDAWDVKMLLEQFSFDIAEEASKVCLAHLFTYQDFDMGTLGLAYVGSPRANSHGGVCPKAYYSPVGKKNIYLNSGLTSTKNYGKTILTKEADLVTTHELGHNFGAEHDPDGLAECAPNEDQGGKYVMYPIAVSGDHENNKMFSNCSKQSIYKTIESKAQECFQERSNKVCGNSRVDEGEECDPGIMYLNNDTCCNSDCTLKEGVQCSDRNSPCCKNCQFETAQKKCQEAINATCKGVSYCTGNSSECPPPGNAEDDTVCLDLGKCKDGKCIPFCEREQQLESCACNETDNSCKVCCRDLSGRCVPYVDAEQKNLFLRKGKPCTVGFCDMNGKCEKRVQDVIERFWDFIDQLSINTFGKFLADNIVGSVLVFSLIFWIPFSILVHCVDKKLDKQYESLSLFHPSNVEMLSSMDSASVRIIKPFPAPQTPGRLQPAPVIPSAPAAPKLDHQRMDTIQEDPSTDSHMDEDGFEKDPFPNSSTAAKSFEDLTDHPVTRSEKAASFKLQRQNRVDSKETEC

IC50 [1] [nM]	IC50 (MMP-9) [nM]	IC50 (MMP-13) [nM]	melting point [°C]	IC50 (MMP-1) [nM]	MMP1 % inhibition (MMP-1; printed in the MMP1 IC50 column, concentration not given) [%]	MMP9 % inhibition (MMP-9; printed in the MMP9 IC50 column, concentration not given) [%]	MMP13 % inhibition (MMP-13; MMP13 IC50, concentration not given) [%]	Structure (SMILES)	inhibition at 3 µM (THP-1 cells) [%]
11.4	1280	98	–	–	–	–	–	CC#CCOc1ccc(S(=O)(=O)CC2(C(=O)NO)CCOCC2)cc1 [Example 18, 4-(4-But-2-ynyloxy-benzenesulfonylmethyl)-tetrahydro-pyran-4-carboxylic acid hydroxyamide]	45
139	2300	946	–	–	–	–	–	CC#CCOc1ccc(SCC2(C(=O)NO)CCOCC2)cc1 [Example 17, 4-(4-But-2-ynyloxy-phenylsulfanylmethyl)-tetrahydro-pyran-4-carboxylic acid hydroxyamide]	0
74	–	1320	–	–	–	–	–	CC#CCOc1ccc([S+]([O-])CC2(C(=O)NO)CCOCC2)cc1 (centres unmarked) [Example 19, 4-(4-But-2-ynyloxy-benzenesulfinylmethyl)-tetrahydro-pyran-4-carboxylic acid hydroxyamide]	4
–	–	–	140	–	–	–	–	CCCCCC#CCOc1ccc(S(=O)(=O)C2(C(=O)NO)CCN(Cc3ccc(Br)cc3)CC2)cc1 (as salt: hydrochloride) [Example 6, 1-(4-Bromo-benzyl)-4-(4-oct-2-ynyloxy-benzenesulfonyl)-piperdine-4-carboxylic acid hydroxyamide]	–
11	4280	809	–	3770	–	–	–	CC#CCOc1ccc(S(=O)(=O)CC2(C(=O)NO)CCN(C(=O)OC)CC2)cc1 [Example 39, Methyl 4-({[4-(2-butynyloxy)phenyl]sulfonyl}methyl)-4-[(hydroxyamino)-carbonyl]-1-piperidinecarboxylate]	–
–	–	–	213	–	–	–	–	CC#CCOc1ccc(S(=O)(=O)C2(C(=O)NO)CCN(Cc3ccc(Cl)c(Cl)c3)CC2)cc1 (as salt: HCl) [Example 10, 4-(4-But-2-ynyloxy-benzenesulfonyl)-1-(3,4-dichloro-benzyl)-piperidine-4-carboxylic acid hydroxyamide]	–
393	–	–	–	–	32.9	58.9	60	CCCCCC#CCOc1ccc(S(=O)(=O)C2(C(=O)NO)CCN(Cc3ccc(Br)cc3)CC2)cc1 [Example 6, 1-(4-Bromo-benzyl)-4-(4-oct-2-ynyloxy-benzenesulfonyl)-piperdine-4-carboxylic acid hydroxyamide]	–
18	8580	1020	–	8600	–	–	–	CC#CCOc1ccc(S(=O)(=O)CC2(C(=O)NO)CCN(CC#CC)CC2)cc1 [Example 37, 1-(2-Butynyl)-4-({[4-(2-butynyloxy)phenyl]sulfonyl}methyl)-N-hydroxy-4-piperidinecarboxamide hydrochloride]	–
882	2000	800	–	–	–	–	–	O=C(NO)C1(S(=O)(=O)c2ccc(OCC#CCN3CCOCC3)cc2)CCN(Cc2ccc(Br)cc2)CC1 [Example 13, 1-(4-Bromo-benzyl)-4-[4-(4-morpholin-4-yl-but-2-ynyloxy)-benzenesulfonyl]-piperdine-4-carboxylic acid hydroxyamide]	69
